Test system: 616215-338-R-J1-PDC complex spheroid viability
Test: Anticancer human tumor 616215-338-R-J1-PDC patient-derived colon adenocarcinoma cell line growth inhibition [RAS]
Details: for IC50: curve of first compound; for viability, T/C: stronger effect = lower value
How it was run: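 Multi-cell-type spheroids: tumor cells plus HUVEC endothelial cells and mesenchymal stem cells. RAS-pathway inhibitors were combined with targeted agents, each dosed in half-log steps down from clinical Cmax, or from 10 microM when Cmax was unknown.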

[1] = second compound 0.000949 µM, first compound 0.0316 µM
[2] = second compound 0.000949 µM, first compound 0.1 µM
[3] = second compound 0.000949 µM, first compound 0.316 µM
[4] = second compound 0.000949 µM, first compound 1 µM
[5] = second compound 0.000949 µM, first compound 3.16 µM
[6] = second compound 0.000949 µM, first compound 10 µM
[7] = second compound 0.003 µM, first compound 0.0316 µM
[8] = second compound 0.003 µM, first compound 0.1 µM
[9] = second compound 0.003 µM, first compound 0.316 µM
[10] = second compound 0.003 µM, first compound 1 µM
[11] = second compound 0.003 µM, first compound 3.16 µM
[12] = second compound 0.003 µM, first compound 10 µM
[13] = second compound 0.00949 µM, first compound 0.0316 µM
[14] = second compound 0.00949 µM, first compound 0.1 µM
[15] = second compound 0.00949 µM, first compound 0.316 µM
[16] = second compound 0.00949 µM, first compound 1 µM
[17] = second compound 0.00949 µM, first compound 3.16 µM
[18] = second compound 0.00949 µM, first compound 10 µM
[19] = second compound 0.03 µM, first compound 0.0316 µM
[20] = second compound 0.03 µM, first compound 0.1 µM
[21] = second compound 0.03 µM, first compound 0.316 µM
[22] = second compound 0.03 µM, first compound 1 µM
[23] = second compound 0.03 µM, first compound 3.16 µM
[24] = second compound 0.03 µM, first compound 10 µM
[25] = second compound 0.0949 µM, first compound 0.0316 µM
[26] = second compound 0.0949 µM, first compound 0.1 µM
[27] = second compound 0.0949 µM, first compound 0.316 µM
[28] = second compound 0.0949 µM, first compound 1 µM
[29] = second compound 0.0949 µM, first compound 3.16 µM
[30] = second compound 0.0949 µM, first compound 10 µM
[31] = second compound 0.3 µM, first compound 0.0316 µM
[32] = second compound 0.3 µM, first compound 0.1 µM
[33] = second compound 0.3 µM, first compound 0.316 µM
[34] = second compound 0.3 µM, first compound 1 µM
[35] = second compound 0.3 µM, first compound 3.16 µM
[36] = second compound 0.3 µM, first compound 10 µM
[37] = second compound 0.000949 µM, first compound 0.00316 µM
[38] = second compound 0.000949 µM, first compound 0.01 µM
[39] = second compound 0.003 µM, first compound 0.00316 µM
[40] = second compound 0.003 µM, first compound 0.01 µM
[41] = second compound 0.00949 µM, first compound 0.00316 µM
[42] = second compound 0.00949 µM, first compound 0.01 µM
[43] = second compound 0.03 µM, first compound 0.00316 µM
[44] = second compound 0.03 µM, first compound 0.01 µM
[45] = second compound 0.0949 µM, first compound 0.00316 µM
[46] = second compound 0.0949 µM, first compound 0.01 µM
[47] = second compound 0.3 µM, first compound 0.00316 µM
[48] = second compound 0.3 µM, first compound 0.01 µM
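Further: spheroids exposed to agents for seven days before viability readout.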
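Wherever viability, T/C is given: 100% = DMSO vehicle control viability.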

CC(C)NCC(C(=O)N1CCN(c2ncnc3c2C(C)CC3O)CC1)c1ccc(Cl)cc1 (stereo not drawn) + CCn1c(-c2cccnc2C(C)OC)c2c3cc(ccc31)N1CCOC(CC(NC(=O)C(C(C)C)N(C)C(=O)C3(F)CCN(C(=O)C#CC(C)(C)N(C)C)CC3)C(=O)N3CCCC(N3)C(=O)OCC(C)(C)C2)C1
IC50 (second compound 0.000949 µM): 8.75 µM | IC50 (second compound 0.003 µM): > 10 µM | IC50 (second compound 0.00949 µM): > 10 µM | IC50 (second compound 0.03 µM): 8.38 µM | IC50 (second compound 0.0949 µM): 6.15 µM | IC50 (second compound 0.3 µM): 3 µM | viability, T/C [1]: 106% | viability, T/C [2]: 106% | viability, T/C [3]: 102% | viability, T/C [4]: 113% | viability, T/C [5]: 90.7% | viability, T/C [6]: 44.7% | viability, T/C [7]: 98.1% | viability, T/C [8]: 95.9% | viability, T/C [9]: 94% | viability, T/C [10]: 98.4% | viability, T/C [11]: 97.4% | viability, T/C [12]: 50.9% | viability, T/C [13]: 112% | viability, T/C [14]: 101% | viability, T/C [15]: 93.5% | viability, T/C [16]: 98.5% | viability, T/C [17]: 85.5% | viability, T/C [18]: 51.1% | viability, T/C [19]: 99.7% | viability, T/C [20]: 98.8% | viability, T/C [21]: 105% | viability, T/C [22]: 111% | viability, T/C [23]: 96.2% | viability, T/C [24]: 41.4% | viability, T/C [25]: 118% | viability, T/C [26]: 108% | viability, T/C [27]: 111% | viability, T/C [28]: 97.2% | viability, T/C [29]: 73.9% | viability, T/C [30]: 32.4% | viability, T/C [31]: 116% | viability, T/C [32]: 116% | viability, T/C [33]: 108% | viability, T/C [34]: 85.6% | viability, T/C [35]: 48.1% | viability, T/C [36]: 28.6%

CC(C)n1nc(-c2ccc3oc(N)nc3c2)c2c(N)ncnc21 + CCn1c(-c2cccnc2C(C)OC)c2c3cc(ccc31)N1CCOC(CC(NC(=O)C(C(C)C)N(C)C(=O)C3(F)CCN(C(=O)C#CC(C)(C)N(C)C)CC3)C(=O)N3CCCC(N3)C(=O)OCC(C)(C)C2)C1
IC50 (second compound 0.000949 µM): > 0.1 µM | IC50 (second compound 0.003 µM): > 0.1 µM | IC50 (second compound 0.00949 µM): > 0.1 µM | IC50 (second compound 0.03 µM): > 0.1 µM | IC50 (second compound 0.0949 µM): > 0.1 µM | IC50 (second compound 0.3 µM): 0.0662 µM | viability, T/C (second compound 0.000949 µM, first compound 0.000316 µM): 95.6% | viability, T/C (second compound 0.000949 µM, first compound 0.001 µM): 97.1% | viability, T/C [37]: 108% | viability, T/C [38]: 96.9% | viability, T/C [1]: 112% | viability, T/C [2]: 72.2% | viability, T/C (second compound 0.003 µM, first compound 0.000316 µM): 102% | viability, T/C (second compound 0.003 µM, first compound 0.001 µM): 98.9% | viability, T/C [39]: 97.8% | viability, T/C [40]: 105% | viability, T/C [7]: 116% | viability, T/C [8]: 74.1% | viability, T/C (second compound 0.00949 µM, first compound 0.000316 µM): 100% | viability, T/C (second compound 0.00949 µM, first compound 0.001 µM): 90.7% | viability, T/C [41]: 101% | viability, T/C [42]: 111% | viability, T/C [13]: 111% | viability, T/C [14]: 66.6% | viability, T/C (second compound 0.03 µM, first compound 0.000316 µM): 95.5% | viability, T/C (second compound 0.03 µM, first compound 0.001 µM): 96.1% | viability, T/C [43]: 115% | viability, T/C [44]: 106% | viability, T/C [19]: 102% | viability, T/C [20]: 64.1% | viability, T/C (second compound 0.0949 µM, first compound 0.000316 µM): 109% | viability, T/C (second compound 0.0949 µM, first compound 0.001 µM): 109% | viability, T/C [45]: 113% | viability, T/C [46]: 110% | viability, T/C [25]: 108% | viability, T/C [26]: 55.8% | viability, T/C (second compound 0.3 µM, first compound 0.000316 µM): 106% | viability, T/C (second compound 0.3 µM, first compound 0.001 µM): 106% | viability, T/C [47]: 103% | viability, T/C [48]: 82.1% | viability, T/C [31]: 71.8% | viability, T/C [32]: 38.9%

CC(Nc1ccc2c(c1)OCCn1cc(N3C(=O)OCC3C(F)F)nc1-2)C(N)=O (stereo not drawn) + CCn1c(-c2cccnc2C(C)OC)c2c3cc(ccc31)N1CCOC(CC(NC(=O)C(C(C)C)N(C)C(=O)C3(F)CCN(C(=O)C#CC(C)(C)N(C)C)CC3)C(=O)N3CCCC(N3)C(=O)OCC(C)(C)C2)C1
IC50 (second compound 0.000949 µM): > 10 µM | IC50 (second compound 0.003 µM): > 10 µM | IC50 (second compound 0.00949 µM): > 10 µM | IC50 (second compound 0.03 µM): > 10 µM | IC50 (second compound 0.0949 µM): > 10 µM | IC50 (second compound 0.3 µM): 9.65 µM | viability, T/C [1]: 106% | viability, T/C [2]: 112% | viability, T/C [3]: 109% | viability, T/C [4]: 101% | viability, T/C [5]: 93.2% | viability, T/C [6]: 91.9% | viability, T/C [7]: 107% | viability, T/C [8]: 116% | viability, T/C [9]: 103% | viability, T/C [10]: 102% | viability, T/C [11]: 99.7% | viability, T/C [12]: 84.2% | viability, T/C [13]: 97.5% | viability, T/C [14]: 116% | viability, T/C [15]: 109% | viability, T/C [16]: 114% | viability, T/C [17]: 91.5% | viability, T/C [18]: 78.7% | viability, T/C [19]: 95.4% | viability, T/C [20]: 109% | viability, T/C [21]: 98.9% | viability, T/C [22]: 108% | viability, T/C [23]: 96.4% | viability, T/C [24]: 78.3% | viability, T/C [25]: 123% | viability, T/C [26]: 106% | viability, T/C [27]: 103% | viability, T/C [28]: 92% | viability, T/C [29]: 106% | viability, T/C [30]: 90% | viability, T/C [31]: 102% | viability, T/C [32]: 87.6% | viability, T/C [33]: 94.5% | viability, T/C [34]: 68.1% | viability, T/C [35]: 103% | viability, T/C [36]: 48.7%

O=C(c1ccc(F)c(F)c1Nc1ccc(I)cc1F)N1CC(O)([C@@H]2CCCCN2)C1 + CCn1c(-c2cccnc2C(C)OC)c2c3cc(ccc31)N1CCOC(CC(NC(=O)C(C(C)C)N(C)C(=O)C3(F)CCN(C(=O)C#CC(C)(C)N(C)C)CC3)C(=O)N3CCCC(N3)C(=O)OCC(C)(C)C2)C1
IC50 (second compound 0.000949 µM): 0.0649 µM | IC50 (second compound 0.003 µM): 0.0537 µM | IC50 (second compound 0.00949 µM): 0.0578 µM | IC50 (second compound 0.03 µM): 0.0531 µM | IC50 (second compound 0.0949 µM): 0.0475 µM | IC50 (second compound 0.3 µM): 0.0148 µM | viability, T/C [37]: 108% | viability, T/C [38]: 99.2% | viability, T/C [1]: 70.6% | viability, T/C [2]: 34.7% | viability, T/C [3]: 21.4% | viability, T/C [4]: 4.49% | viability, T/C [39]: 112% | viability, T/C [40]: 109% | viability, T/C [7]: 63.3% | viability, T/C [8]: 30.5% | viability, T/C [9]: 18% | viability, T/C [10]: 2.97% | viability, T/C [41]: 105% | viability, T/C [42]: 109% | viability, T/C [13]: 61.5% | viability, T/C [14]: 34.8% | viability, T/C [15]: 22.2% | viability, T/C [16]: 3.61% | viability, T/C [43]: 125% | viability, T/C [44]: 93.9% | viability, T/C [19]: 61.8% | viability, T/C [20]: 34.7% | viability, T/C [21]: 16.9% | viability, T/C [22]: 2.6% | viability, T/C [45]: 101% | viability, T/C [46]: 87.9% | viability, T/C [25]: 59.2% | viability, T/C [26]: 31.2% | viability, T/C [27]: 13.3% | viability, T/C [28]: 2.27% | viability, T/C [47]: 85.8% | viability, T/C [48]: 58.6% | viability, T/C [31]: 32.8% | viability, T/C [32]: 20.4% | viability, T/C [33]: 5.09% | viability, T/C [34]: 1.18%
